Results: ChEMBL document CHEMBL1201862, “PubChem BioAssay data set” (2004)
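Grown in 96-well plates, cells were treated for 48 hours with each compound at five concentrations. Insufficient inhibition: endpoint recorded as highest concentration tested. The concentration for 50% growth inhibition is given as GI50.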 The source made the active and inactive calls. Cut-off read from the data, not from the text of the source: active = GI50 up to about 1.1 µM and inactive = higher.

How the values were obtained:
Test in all cases: growth of human tumour cells (NCI), 48 h
SK-OV-3 = test system: SK-OV-3
CAKI-1 = test system: CAKI-1
EKVX = test system: EKVX
OVCAR-8 = test system: OVCAR-8
HCC 2998 = test system: HCC 2998
NCI-H23 = test system: NCI-H23
HCT-116 = test system: HCT-116
A549 = test system: A549
IGROV-1 = test system: IGROV-1
K562 = test system: K562
CCRF-CEM = test system: CCRF-CEM
LXFL 529 = test system: LXFL 529
NCI-H226 = test system: NCI-H226
KM12 = test system: KM12
HL-60 = test system: HL-60
HT-29 = test system: HT-29
MDA-MB-231 = test system: MDA-MB-231
Hs-578T = test system: Hs-578T
DU-145 = test system: DU-145
MDA-MB-435 = test system: MDA-MB-435

Row | Compound | GI50 (SK-OV-3) | GI50 (CAKI-1) | GI50 (EKVX) | GI50 (OVCAR-8) | GI50 (HCC 2998) | GI50 (NCI-H23) | GI50 (HCT-116) | GI50 (A549) | GI50 (IGROV-1) | GI50 (K562) | GI50 (CCRF-CEM) | GI50 (LXFL 529) | GI50 (NCI-H226) | GI50 (KM12) | GI50 (HL-60) | GI50 (HT-29) | GI50 (MDA-MB-231) | GI50 (Hs-578T) | GI50 (DU-145) | GI50 (MDA-MB-435)
1 | Cc1cc(C)nc(NS(=O)(=O)c2ccc(NC(=O)c3cccc4c(N)c5ccccc5nc34)cc2)n1 | > 100 µM (inactive) | > 100 µM (inactive) | > 100 µM (inactive) | 65.8 µM (inactive) | 67.1 µM (inactive) | > 100 µM (inactive) | 90.6 µM (inactive) | > 100 µM (inactive) | > 100 µM (inactive) | 63.8 µM (inactive) | 26.2 µM (inactive) | > 100 µM (inactive) | > 100 µM (inactive) | 40.6 µM (inactive) | – | – | – | – | – | –
2 | O=C(Nc1ccc(Cl)cc1Cl)C(=O)C(C(=O)c1ccc2ccccc2c1)C1OC(=O)c2ccccc21 (stereo not given) | 26.8 µM (inactive) | 13.5 µM (inactive) | 15.9 µM (inactive) | 6.34 µM (inactive) | – | 2.92 µM (inactive) | 5.56 µM (inactive) | 8.32 µM (inactive) | 13.6 µM (inactive) | – | – | 3.33 µM (inactive) | 1.73 µM (inactive) | 15 µM (inactive) | 2.96 µM (inactive) | 15.7 µM (inactive) | – | – | – | –
3 | O=C1C=C(NCC(c2ccccc2)c2ccccc2)C(=O)c2ncccc21 | 7.33 µM (inactive) | 2.4 µM (inactive) | 2.07 µM (inactive) | 2.39 µM (inactive) | 0.785 µM (active) | 1.54 µM (inactive) | 8.53 µM (inactive) | 0.668 µM (active) | 1.38 µM (inactive) | 1.38 µM (inactive) | 2.64 µM (inactive) | – | 3.1 µM (inactive) | 2.19 µM (inactive) | 1.15 µM (inactive) | 7.45 µM (inactive) | 2.67 µM (inactive) | 2.63 µM (inactive) | 1.96 µM (inactive) | 1.35 µM (inactive)
4 | CC(CN(C)C)/C(=N\Nc1ccccc1)c1ccccc1 (stereo not given) | 15.6 µM (inactive) | – | 1.3 µM (inactive) | 12.7 µM (inactive) | – | 3.4 µM (inactive) | 0.415 µM (active) | 0.44 µM (active) | 2.09 µM (inactive) | 0.112 µM (active) | 0.211 µM (active) | 0.0473 µM (active) | – | 0.0826 µM (active) | 0.419 µM (active) | 2.08 µM (inactive) | – | – | – | –
5 | Clc1ccccc1C(n1cc(Br)cn1)n1cc(Br)cn1 | > 10 µM (inactive) | 19 µM (inactive) | – | 19.3 µM (inactive) | > 10 µM (inactive) | 23.1 µM (inactive) | 15 µM (inactive) | – | > 10 µM (inactive) | 19.1 µM (inactive) | 20.9 µM (inactive) | 95.7 µM (inactive) | > 10 µM (inactive) | 15.3 µM (inactive) | 14.7 µM (inactive) | 13.8 µM (inactive) | – | – | – | –
6 | CC(=O)CC(=O)CCCC(=O)Nc1ccc(Cl)cc1Cl | > 100 µM (inactive) | > 100 µM (inactive) | – | > 100 µM (inactive) | > 100 µM (inactive) | > 100 µM (inactive) | > 100 µM (inactive) | > 100 µM (inactive) | > 100 µM (inactive) | > 100 µM (inactive) | – | > 100 µM (inactive) | > 100 µM (inactive) | > 100 µM (inactive) | > 100 µM (inactive) | > 100 µM (inactive) | – | – | – | –
7 | O=C(Nc1nc2ccc([N+](=O)[O-])cc2s1)C(=O)C(C(=O)c1ccncc1)C1OC(=O)c2ccccc21 (stereo not given) | – | > 100 µM (inactive) | 92.5 µM (inactive) | > 100 µM (inactive) | > 100 µM (inactive) | > 100 µM (inactive) | > 100 µM (inactive) | > 100 µM (inactive) | > 100 µM (inactive) | > 100 µM (inactive) | > 100 µM (inactive) | > 100 µM (inactive) | > 100 µM (inactive) | > 100 µM (inactive) | > 100 µM (inactive) | > 100 µM (inactive) | – | – | – | –
8 | CC(=O)OCc1cncn1S(=O)(=O)c1ccc(C)cc1 | > 100 µM (inactive) | > 100 µM (inactive) | > 100 µM (inactive) | > 91.4 µM (inactive) | > 62.4 µM (inactive) | > 100 µM (inactive) | 25.6 µM (inactive) | > 100 µM (inactive) | > 74 µM (inactive) | 5.37 µM (inactive) | 30.4 µM (inactive) | – | > 100 µM (inactive) | 31.7 µM (inactive) | 10.8 µM (inactive) | 33.7 µM (inactive) | > 100 µM (inactive) | > 78.5 µM (inactive) | > 100 µM (inactive) | 10.4 µM (inactive)
9 | O=P1(Oc2ccccc2)N(CCCl)CCN1c1ccccc1 (stereo not given) | > 100 µM (inactive) | > 100 µM (inactive) | 80.4 µM (inactive) | > 100 µM (inactive) | > 100 µM (inactive) | > 100 µM (inactive) | 75.3 µM (inactive) | > 100 µM (inactive) | 42.7 µM (inactive) | > 100 µM (inactive) | > 100 µM (inactive) | – | > 100 µM (inactive) | > 100 µM (inactive) | > 100 µM (inactive) | > 100 µM (inactive) | 95.7 µM (inactive) | > 100 µM (inactive) | > 100 µM (inactive) | > 100 µM (inactive)
